In US20060135458A1, “Antiviral oligonucleotides” (priority 2002, published 2006):
In the oligonucleotide strings, read from the 5' end, every base follows the letter of its sugar. An asterisk marks phosphorothioate; unmarked linkages are phosphodiester. Other units and linkages are bracketed, terminal groups are in braces. A string of capitals states the bases alone. d = 2'-deoxy (DNA)

System: Bal 31
Design: key to the marks not given beside the values

## REP 2029: A40 (polyA) PS-ON (DNA dA*dA*dA*dA*dA*dA*dA*dA*dA*dA*dA*dA*dA*dA*dA*dA*dA*dA*dA*dA*dA*dA*dA*dA*dA*dA*dA*dA*dA*dA*dA*dA*dA*dA*dA*dA*dA*dA*dA*dA)
  Nuclease resistance, Bal 31: ++++
